Starred links: 1 amine or outer side, 2 acyl side, 3 side chain; linkers in the order of their positions; H or OH if unused. Non-standard residues stand in square brackets, D forms with d. Residues, ends and D or L forms follow the SMILES beside them. *: point of attachment. pNA = O=[N+]([O-])c1ccc(N*)cc1; Nle = CCCC[CH](N)C(=O)O; CO = O=C([*:1])[*:2]
Legend:
[1] = target: Somatostatin receptor type 5 (Homo sapiens, UniProt P35346)
[2] = target: Somatostatin receptor type 3 (Homo sapiens, UniProt P32745)
Chain of Somatostatin receptor type 3 (P32745 whole entry): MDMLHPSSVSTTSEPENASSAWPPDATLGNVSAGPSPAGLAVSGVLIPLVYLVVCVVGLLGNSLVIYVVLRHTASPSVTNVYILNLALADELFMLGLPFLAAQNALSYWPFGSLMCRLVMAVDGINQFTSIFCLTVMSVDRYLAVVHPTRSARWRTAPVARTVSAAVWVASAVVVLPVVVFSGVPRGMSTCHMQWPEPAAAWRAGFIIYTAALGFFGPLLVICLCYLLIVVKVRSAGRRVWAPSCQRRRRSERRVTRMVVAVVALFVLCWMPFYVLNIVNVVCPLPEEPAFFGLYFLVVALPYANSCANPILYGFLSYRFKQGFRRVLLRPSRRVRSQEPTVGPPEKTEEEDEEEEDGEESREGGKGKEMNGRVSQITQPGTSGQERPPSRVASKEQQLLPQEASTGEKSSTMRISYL

[3] = target: Somatostatin receptor type 1 (Homo sapiens, UniProt P30872)
Chain of Somatostatin receptor type 1 (P30872 whole entry): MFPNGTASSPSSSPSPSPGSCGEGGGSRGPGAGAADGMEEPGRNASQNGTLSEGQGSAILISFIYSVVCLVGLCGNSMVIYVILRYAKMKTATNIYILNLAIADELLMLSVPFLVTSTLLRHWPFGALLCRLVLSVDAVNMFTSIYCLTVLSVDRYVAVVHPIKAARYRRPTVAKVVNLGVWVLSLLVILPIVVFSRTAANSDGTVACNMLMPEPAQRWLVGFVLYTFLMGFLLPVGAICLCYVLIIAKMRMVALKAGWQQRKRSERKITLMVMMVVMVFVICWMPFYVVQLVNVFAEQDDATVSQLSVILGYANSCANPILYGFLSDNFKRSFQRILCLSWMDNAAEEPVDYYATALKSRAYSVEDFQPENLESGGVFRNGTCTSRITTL

[4] = target: Somatostatin receptor type 2 (Homo sapiens, UniProt P30874)
Chain of Somatostatin receptor type 2 (P30874 whole entry): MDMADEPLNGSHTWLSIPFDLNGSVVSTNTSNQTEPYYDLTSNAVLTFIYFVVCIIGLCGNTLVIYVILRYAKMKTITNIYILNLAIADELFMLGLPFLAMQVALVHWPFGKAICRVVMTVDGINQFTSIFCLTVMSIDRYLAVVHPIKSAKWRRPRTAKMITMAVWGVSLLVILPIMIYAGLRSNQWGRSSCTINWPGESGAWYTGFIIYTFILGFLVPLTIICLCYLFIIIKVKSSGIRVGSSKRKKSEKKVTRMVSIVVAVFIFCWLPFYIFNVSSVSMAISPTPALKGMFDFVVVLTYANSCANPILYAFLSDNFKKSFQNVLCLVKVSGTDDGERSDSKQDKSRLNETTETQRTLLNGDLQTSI

[5] = target: Somatostatin receptor type 4 (Homo sapiens, UniProt P31391)
Chain of Somatostatin receptor type 4 (P31391 whole entry): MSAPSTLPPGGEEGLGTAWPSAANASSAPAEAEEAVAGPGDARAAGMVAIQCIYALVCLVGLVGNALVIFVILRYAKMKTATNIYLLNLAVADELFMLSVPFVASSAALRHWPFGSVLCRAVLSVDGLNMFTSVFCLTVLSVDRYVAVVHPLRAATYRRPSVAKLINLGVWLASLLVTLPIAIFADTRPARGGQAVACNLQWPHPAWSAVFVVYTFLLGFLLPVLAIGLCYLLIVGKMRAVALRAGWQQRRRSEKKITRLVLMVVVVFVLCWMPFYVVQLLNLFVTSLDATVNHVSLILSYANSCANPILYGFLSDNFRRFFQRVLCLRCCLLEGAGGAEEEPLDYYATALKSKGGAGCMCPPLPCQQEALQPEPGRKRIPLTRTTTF

Chain of Somatostatin receptor type 5 (P35346 whole entry): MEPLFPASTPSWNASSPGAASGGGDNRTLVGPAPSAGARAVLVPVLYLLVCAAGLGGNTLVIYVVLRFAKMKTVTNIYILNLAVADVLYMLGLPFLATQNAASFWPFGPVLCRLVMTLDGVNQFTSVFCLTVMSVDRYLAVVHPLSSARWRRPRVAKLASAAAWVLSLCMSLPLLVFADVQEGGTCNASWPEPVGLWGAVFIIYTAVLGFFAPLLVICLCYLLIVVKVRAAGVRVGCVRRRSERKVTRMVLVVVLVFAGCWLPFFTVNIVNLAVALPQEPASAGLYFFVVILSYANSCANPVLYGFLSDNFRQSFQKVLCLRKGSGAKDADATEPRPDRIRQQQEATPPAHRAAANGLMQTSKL

SMILES | Ki [1] [nM] | Ki [2] [nM] | Ki [3] [nM] | Ki [4] [nM] | Ki [5] [nM]
CCCCC(NC(=O)NC(Cc1ccccc1)C(=O)Nc1ccc([N+](=O)[O-])cc1)C(=O)NC(CCCCN)C(=O)OC (stereo unspecified) [CAS_5311373] ({pNA-Phe-CO}-[Nle]-Lys-OMe; configuration not given here) | 1200 | 24 | 1260 | > 10000 | 8650
CC(CCN)CC(C)(C)CNC(=O)[C@@H](Cc1cccc2ccccc12)NC(=O)N(CCc1ccccc1)CCc1ccccn1 (stereo partly drawn) [L-797591] | 3600 | 2240 | 1.4 | 1870 | 170
CC(C)NCc1ccc(C[C@@H]2NC(=O)[C@@H](Cc3c[nH]c4ccccc34)NC(=O)[C@H](Cc3ccccc3)NC(=O)[C@H](Cc3ccccc3)NC(=O)[C@H](CCCCN)NC(=O)[C@@H](N)CSSC[C@@H](C(=O)O)NC(=O)[C@H](CO)NC(=O)[C@H]([C@@H](C)O)NC(=O)[C@H](Cc3ccccc3)NC(=O)[C@H]([C@@H](C)O)NC2=O)cc1 [CH-275] (HELM PEPTIDE1{C.K.F.F.[dW].[CC(C)NCc1ccc(C[C@H](N[*:1])C(=O)[*:2])cc1].T.F.T.S.C}$PEPTIDE1,PEPTIDE1,1:R3-11:R3$$$V2.0) | 1000 | 1000 | 3.2 | – | 4.3
COC(=O)C(CCCNC(=N)N)NC(=O)CCCc1c(-c2ccccc2)[nH]c2c(F)cc(F)cc12 [L-803,087] | 3880 | 1280 | 199 | 4720 | 0.7
CC(c1c[nH]c2ccccc12)C(NC(=O)N1CCC(n2c(=O)[nH]c3ccccc32)CC1)C(=O)NCC1CCCC(CN)C1 (stereo unspecified) [CAS_5311372] | 4260 | 729 | 2760 | 0.05 | 310

The remaining lines, values ahead:

Ki [1] [nM] | Ki [2] [nM] | Ki [3] [nM] | Ki [4] [nM] | Ki [5] [nM] | SMILES
0.4 | 0.6 | 7 | 0.6 | 0.5 | CSCC[C@H](NC(=O)[C@H](CCCN=C(N)N)NC(=O)[C@@H](N)CC(=O)O)C(=O)N1CCC[C@H]1C(=O)N[C@H]1CSSC[C@@H](C(=O)N[C@@H](CCCCN)C(=O)O)NC(=O)[C@H](CO)NC(=O)[C@H](CO)NC(=O)[C@H](Cc2ccccc2)NC(=O)[C@H]([C@@H](C)O)NC(=O)[C@H](CCCCN)NC(=O)[C@H](Cc2c[nH]c3ccccc23)NC(=O)[C@H](Cc2ccccc2)NC(=O)[C@H](Cc2ccccc2)NC(=O)[C@H](CC(N)=O)NC(=O)[C@H](CCCN=C(N)N)NC1=O [Cortistatin]
– | 27 | 1000 | – | – | CC(C)[C@@H]1NC(=O)[C@H](CCCCN)NC(=O)[C@@H](Cc2c[nH]c3ccccc23)NC(=O)[C@H](Cc2ccc(O)cc2)NC(=O)[C@H](C)N(C)C(=O)[C@H](Cc2ccccc2)NC1=O [seglitide]
0.4 | 64 | 3.3 | 52 | 82 | C[C@H](N)COC(=O)[C@H](CCCCN)NC(=O)Cc1c(-c2ccc3ccccc3c2)[nH]c2c1ccc1ccccc12

— BindingDB's records for doi:10.1006/frne.1999.0183 (Royal Victoria Hospital, 1999)
